Several values for one entry are separate records, joined by “and”; a condition that tells them apart may be missing. Identical values can stand only once. Like-named read-outs stand apart in the source and are kept apart here.
Tests used:
Test in all cases: greenhouse post-emergence herbicidal test
[1] = system: KCHSC; type: in vivo, Kochia scoparia; parameters: key to herbicidal activity against KCHSC found: rating on a scale from 0 to 100; settings: post emergence
Outline: (§1)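 Post-emergence greenhouse test: plants in loamy sand, sprayed at 1–15 cm height with aqueous spray liquor from 10% emulsion concentrates, kept at 10-25 °C or 20-35 °C by species. Damage scored 0–100 (100 = complete destruction), usually 20 days after treatment. Expected additive effect E from Colby: E=X+Y−(X·Y/100).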

[2] = system: LAMAM; type: in vivo, Lamium amplexicaule; parameters: key: scale 0 to 100
Description: The culture containers used were plastic pots containing medium loamy sand with approximately 4.6% of humus and 69.9% sand as substrate. The seeds of the test plants were sown separately for each species.
For the post-emergence treatment, the test plants were grown to a plant height of from 1 to 15 cm, depending on the plant habit, and only then treated with the active compounds which had been suspended or emulsified in water. To this end, the test plants were either sown directly, and grown in the same containers, or they were first grown separately as seedlings and transplanted into the test containers a few days prior to treatment.
Depending on the species, the plants were kept at 10-25° C. and 20-35° C., respectively.
The test period extended over 1 to 3 weeks. During this time, the plants were tended and their response to the individual treatments was evaluated 20 days after treatment except mentioned otherwise.
Evaluation was carried out using a scale from 0 to 100. 100 means no emergence of the plants, or complete destruction of at least the above-ground parts, and 0 means no damage or normal course of growth.
The respective stated components A and B, and, if appropriate, C, were formulated as a 10% by weight strength emulsion concentrate and, with addition of the amount of solvent system, introduced into the spray liquor used for applying the active compound. In the examples, the solvent used was water.
In the examples below, using the method of S. R. Colby (1967) “Calculating synergistic and antagonistic responses of herbicide combinations”, Weeds 15, p. 22 ff., the value E, which is expected if the activity of the individual active compounds is only additive, was calculated. E=X+Y−(X·Y/100)

[3] = system: VIOAR; type: in vivo, Viola arvensis; parameters: key to herbicidal activity against VIOAR found / herbicidal activity against VIOLA found: rating on a scale from 0 to 100; settings: post emergence; for pest or weed control at 62.5 g/ha / pest or weed control at 125 g/ha: Viola arvensis, post-emergence, read-out: herbicidal activity against VIOAR found
Outline: as §1

[4] = 6 days after treatment, g/ha a.i.: I.1 31.25, naptalam 200, mixture 31.25+200
[5] = 6 days after treatment, g/ha a.i.: I.1 62.5, B.96 35, mixture 62.5+35
[6] = 6 days after treatment, g/ha a.i.: I.1 62.5, B.96 70, mixture 62.5+70

## O=C(O)c1cc(C2CC2)nc2onc(C3CC3)c12 [I.1]
[1]; 6 days after treatment, g/ha a.i.: I.1 31.25, naptalam 100, mixture 31.25+100
  herbicidal activity against KCHSC found: 10
[1]; [4]
  herbicidal activity against KCHSC found: 10
[1]; [5]
  herbicidal activity against KCHSC found: 90
[1]; [6]
  herbicidal activity against KCHSC found: 90
[1]; I.1 15.62 g/ha, B.88 1 g/ha a.i.
  herbicidal activity against KCHSC found: 45
[1]; I.1 31.25 g/ha, B.103 7.5 g/ha a.i.
  herbicidal activity against KCHSC found: 30
[1]; I.1 31.25 g/ha, B.103 15 g/ha a.i.
  herbicidal activity against KCHSC found: 30
[1]; I.1 31.25 g/ha, B.167 62.5 g/ha a.i.
  herbicidal activity against KCHSC found: 30
[1]; I.1 31.25 g/ha, B.88 1 g/ha a.i.
  herbicidal activity against KCHSC found: 55
[1]; I.1 62.5 g/ha, B.103 7.5 g/ha a.i.
  herbicidal activity against KCHSC found: 70
[1]; I.1 62.5 g/ha, B.103 15 g/ha a.i.
  herbicidal activity against KCHSC found: 70
[1]; I.1 62.5 g/ha, B.167 62.5 g/ha a.i.
  herbicidal activity against KCHSC found: 70
[1]; I.1 62.5 g/ha, B.88 1 g/ha a.i.
  herbicidal activity against KCHSC found: 80
[1]; applied alone at 31.25 g/ha a.i.
  herbicidal activity against KCHSC found: 80
[1]; applied alone at 125 g/ha a.i.
  herbicidal activity against KCHSC found: 95
[1]; g/ha a.i.: I.1 31.25, B.24 1, mixture 31.25+1
  herbicidal activity against KCHSC found: 40
[1]; g/ha a.i.: I.1 31.25, B.24 2, mixture 31.25+2
  herbicidal activity against KCHSC found: 40
[2]; 31.25 g/ha a.i.
  herbicidal activity against LAMAM, found: 70
[2]; application rate a.i.: I.1 31.25 g/ha, B.139 (pyroxasulfone) 25 g/ha, alone or as mixture (composition 1.139)
  herbicidal activity against LAMAM, found: 80
[2]; application rate a.i.: I.1 31.25 g/ha, B.87 (carfentrazone-ethyl) 1.75 g/ha, alone or as mixture (composition 1.87)
  herbicidal activity against LALAM, found: 70
[2]; application rate a.i.: I.1 62.5 g/ha, B.87 (carfentrazone-ethyl) 1.75 g/ha, alone or as mixture (composition 1.87)
  herbicidal activity against LAMAM, found: 85
[3]; I.1 alone 62.5 g/ha a.i.
  pest or weed control at 62.5 g/ha: 30%
[3]; 62.5 g/ha a.i.
  pest or weed control at 62.5 g/ha: 0%
[3]; 125 g/ha a.i.
  pest or weed control at 125 g/ha: 90%
[3]; single active, 62.5 g/ha a.i.
  pest or weed control at 62.5 g/ha: 20%
  herbicidal activity against VIOLA found: 20
[3]; single active, 125 g/ha a.i.
  pest or weed control at 125 g/ha: 30%
  herbicidal activity against VIOLA found: 30
[3]; 6 days after treatment, g/ha a.i.: I.1 31.25, B.96 35, mixture 31.25+35
  herbicidal activity against VIOAR found: 0
[3]; 6 days after treatment, g/ha a.i.: I.1 31.25, B.96 70, mixture 31.25+70
  herbicidal activity against VIOAR found: 0
[3]; 6 days after treatment, g/ha a.i.: I.1 31.25, B.96 140, mixture 31.25+140
  herbicidal activity against VIOAR found: 0
[3]; [4]
  herbicidal activity against VIOAR found: 0
[3]; [5]
  herbicidal activity against VIOAR found: 0
[3]; [6]
  herbicidal activity against VIOAR found: 0
[3]; 6 days after treatment, g/ha a.i.: I.1 62.5, B.96 140, mixture 62.5+140
  herbicidal activity against VIOAR found: 0
[3]; 6 days after treatment, g/ha a.i.: I.1 62.5, naptalam 100, mixture 62.5+100
  herbicidal activity against VIOAR found: 0
[3]; 6 days after treatment, g/ha a.i.: I.1 62.5, naptalam 200, mixture 62.5+200
  herbicidal activity against VIOAR found: 0
[3]; I.1 62.5 g/ha, B.89 12.5 g/ha a.i.
  herbicidal activity against VIOAR found: 25
[3]; application rate a.i.: I.1 31.25 g/ha, B.84 (paraquat-dichloride) 17.5 g/ha, alone or as mixture (composition 1.84)
  herbicidal activity against VIOAR found: 40
[3]; application rate a.i.: I.1 62.5 g/ha, B.100 (isoxaflutole) 12.5 g/ha, alone or as mixture (composition 1.100)
  herbicidal activity against VIOAR found: 30
[3]; application rate a.i.: I.1 62.5 g/ha, B.30 (imazamox) 3.75 g/ha, alone or as mixture (composition 1.030)
  herbicidal activity against VIOAR found: 0
[3]; application rate a.i.: I.1 62.5 g/ha, B.84 (paraquat-dichloride) 17.5 g/ha, alone or as mixture (composition 1.84)
  herbicidal activity against VIOAR found: 40
[3]; applied alone at 125 g/ha a.i.
  herbicidal activity against VIOAR found: 60 and 80
[3]; g/ha a.i.: I.1 62.5, B.52 2.5, mixture 62.5+2.5
  herbicidal activity against VIOAR found: 0
[3]; g/ha a.i.: I.1 62.5, B.63 0.5, mixture 62.5+0.5
  herbicidal activity against VIOAR found: 0
[3]; g/ha a.i.: I.1 125, B.52 2.5, mixture 125+2.5
  herbicidal activity against VIOAR found: 0
[3]; g/ha a.i.: I.1 125, B.52 5, mixture 125+5
  herbicidal activity against VIOAR found: 0
[3]; g/ha a.i.: I.1 125, B.63 1, mixture 125+1
  herbicidal activity against VIOAR found: 0
[3]; single active, 15.625 g/ha a.i.
  herbicidal activity against VIOLA found: 0
